Measured values reported in US20060063938A1, “Compounds to treat hiv infection and aids” (priority 2001, published 2006).
Where “and” joins values, the source holds several entries; their conditions need not be identical. Identical values can stand only once. Entries after “also recorded” stand apart in the source; their conditions may differ. Like-named read-outs stand apart in the source and are kept apart here.

Experiments:
[1] = target: HIV-1 integrase (Human immunodeficiency virus type 1 group M subtype B, UniProt P04585); assay: In vitro HIV-1 integrase assay (3′-processing and strand transfer) with 21-mer U5 LTR oligonucleotide; type: biochemical
[2] = system: HIV-1; assay: microbe, parasite or virus in culture; type: cell-based; conditions: for IC50: read-out: 50% Inhibitory Conc. (IC50)
[3] = system: replication competent HIV-1; assay: Inhibition of replication competent HIV-1 in H9 cells, p24 antigen ELISA; type: cell-based; conditions: 25 μM B compound, 15 days
Procedure: FIG. 6. Determination of inhibition of replication competent HIV-1 by B compound. HIV-1 infection was carried out in the presence of 25 μM B compound, 100 nM AZT, or in the absence of any drugs. Uninfected H9 culture was used as a negative control. […] Each time point of each culture was evaluated in duplicate.
Inhibition of replication competent HIV-1 by B compound was evaluated at 25 μM concentration. 293T cells were transfected with pNL4-3, a plasmid that encodes full HIV-1 genome. Virus harvested from the transfected cells was used to infect H9 target cells. […] In addition, H9 infected cells were cultured in the presence of 100 nM AZT as a control.
H9 T-lymphoid cells (ATCC) were maintained in the presence of RPMI 1640 Medium (Cellgro), 20% fetal calf serum (HyClone Laboratories), penicillin (50 U/ml; Gibco) and streptomycin (50 μg/ml; Gibco), 2 μg/ml Polybrene (Sigma). […] After 4 hours of infection, H9 cells were washed, resuspended in 2 ml of cell culture medium containing an appropriate drug and maintained in 35-mm-diameter dish. Cultures were fed every 3 days by removing 1 ml of cell culture suspension and replacing with equivalent amount of fresh medium containing an appropriate drug.

[4] = system: 293T cells; assay: Cell proliferation inhibition (XTT) cell toxicity assay; type: cell-based
Procedure: To ensure that inhibition of luciferase activity in the presence of the compounds was indeed due to inhibition of HIV-1 infection and not due to the toxicity of these compounds to the target cells, we performed a cell toxicity assay in the presence of the same concentrations of compounds that were used for IC50 determination (FIG. 5).
Cell proliferation inhibition assay. The effects of inhibitors on cell toxicity were determined by using Cell Proliferation Kit II (XTT) (Roche Molecular Biochemicals). Target cells (293T) were plated at a density of 1×10^3 per well of 96-well plate. Twenty-four hours later cells were treated with an inhibitor for 36 hours. After inhibitor was removed, cells were incubated for additional 48 hours and then were stained with 50 μL of the XTT labeling mix per well (Roche Molecular Biochemicals). Spectrophotometrical absorbance of the samples was measured 4 hours after addition of the labeling mix at wavelengths of 450 nm with a reference point at 700 nm in a 96-well plate reader.

[5] = system: HIV-1; conditions: read-out: IC50 reported previously; Hazuda et al. 2000; cited from earlier work
[6] = 3′-processing step of integration reaction, read-out: IC50 3′-Processing
[7] = strand transfer step of integration reaction, read-out: IC50 Strand transfer
[8] = Human immunodeficiency virus 1, HEK-293T

SMILES	IC50 [1, 6] [µM]	IC50 [1, 7]	Luciferase Activity Relative to No Drug Control (Avg ± S.E.) [2]	also measured
[N-]=[N+]=NCc1cc(CN=[N+]=[N-])cc(C(=O)/C=C(\O)C(=O)O)c1 [Compound A, 4-(3,5-bis-azidomethyl-phenyl)-2-hydroxy-4-oxo-but-2-enoic acid]	> 100	2 µM and 2.8 µM	5 ± 6%	IC50 [2, 8]: 1.6 µM
[N-]=[N+]=NCc1cccc(C(=O)C=C(O)C(=O)O)c1 [Compound B, 4-(3-azidomethyl-phenyl)-2-hydroxy-4-oxo-but-2-enoic acid]	> 100	1.53 ± 0.27 µM	15 ± 7%	IC50 [2, 8]: 0.5 µM; HIV-1 replication (p24 antigen) in infected H9 culture [3]: no significant amounts of HIV-1 replication was detected; also recorded: strongly inhibited replication competent HIV-1
[N-]=[N+]=NCc1ccc(C(=O)C=C(O)C(=O)O)cc1CN=[N+]=[N-] [Compound C]	> 100		36 ± 7%	IC50 ([1]; strand transfer step of integration reaction, listed as 4, read-out: IC50 Strand transfer): 0.26 µM and 0.15 µM; IC50 [2]: 19 µM
[N-]=[N+]=Nc1cccc(C(=O)C=C(O)C(=O)O)c1 [Compound D, 4-(3-azido-phenyl)-2-hydroxy-4-oxo-but-2-enoic acid]	> 100	5.3 µM and 5.2 µM	137 ± 12%	concentration giving 50% inhibition of cell proliferation [4]: approximately 19 μM
Cc1cc(C)cc(C(=O)C=C(O)C(=O)O)c1 [Compound E]	> 100		99 ± 14%	IC50 ([1]; strand transfer step of integration reaction, listed as 15, read-out: IC50 Strand transfer): 9 µM and 11 µM; antiviral activity in single cycle assay [2]: did not show antiviral activity; also recorded: showed no antiviral activity
O=C(O)C(O)=CC(=O)c1ccc(Oc2ccccc2)cc1 [Compound F]	> 100		261 ± 5%	IC50 ([1]; strand transfer step of integration reaction, listed as 16, read-out: IC50 Strand transfer): 7.8 µM and 15 µM
O=C(C=Cc1ccc(O)c(O)c1)Nc1cccc(C(=O)C=C(O)C(=O)O)c1 [Compound G]	9	4.7 µM	24 ± 8%	IC50 [2]: 2.2 µM
O=C(O)C(O)=CC(=O)c1cccc(OCc2ccccc2)c1 [Compound H]		0.35 ± 0.13 µM	14 ± 3%	IC50 ([1]; 3′-processing step of integration reaction, listed as 18, read-out: IC50 3′-Processing): 65 µM and 100 µM; IC50 [2]: 0.6 µM
O=C(O)C(O)=CC(=O)c1cccc(C(=O)c2ccccc2)c1 [Compound I]	> 100		19 ± 2%	IC50 ([1]; strand transfer step of integration reaction, listed as 19, read-out: IC50 Strand transfer): 2.7 µM and 2.1 µM
O=C(C=C(O)c1nnn[nH]1)c1c[nH]c2ccccc12 [Compound P4, reference compound]	> 100		116 ± 27%	IC50 ([1]; strand transfer step of integration reaction, listed as 6, read-out: IC50 Strand transfer): 1.9 µM and 2 µM
O=C(O)C(O)=CC(=O)c1cc(OCc2ccccc2)cc(OCc2ccccc2)c1 [Compound P10, reference compound]	> 1000	1.03 ± 0.25 µM	7% and 7 ± 2%	effect on 3′-processing step ([1]; concentrations up to the millimolar range): unaffected; IC50 for the strand transfer reaction ([1]; strand transfer): in the micromolar range; IC50 [2]: 2.3 µM; IC50 [5]: 2.5 µM
O=C(C=C(O)c1nnn[nH]1)c1c[nH]c2ccc(F)cc12 [Compound P18, reference compound]			59 ± 13%	IC50 ([1]; 3′-processing step of integration reaction, listed as 9, read-out: IC50 3′-Processing): 79 µM; IC50 ([1]; strand transfer step of integration reaction, listed as 9, read-out: IC50 Strand transfer): 1.8 µM
COc1ccc(Cn2nnnc2C(O)=CC(=O)c2c[nH]c3ccc(Cl)cc23)cc1 [Compound P20, reference compound]		1.28 ± 0.38 µM	133 ± 35%	IC50 ([1]; 3′-processing step of integration reaction, listed as 10, read-out: IC50 3′-Processing): 7.2 µM and 7.5 µM
COc1ccc(Cn2nnnc2C(O)=CC(=O)c2c[nH]c3ccc(F)cc23)cc1 [Compound P22, reference compound]			98 ± 28%	IC50 ([1]; 3′-processing step of integration reaction, listed as 11, read-out: IC50 3′-Processing): 8.1 µM and 5.5 µM; IC50 ([1]; strand transfer step of integration reaction, listed as 11, read-out: IC50 Strand transfer): 2.2 µM and 1.6 µM
COc1ccc(Cn2nnnc2C(O)=CC(=O)c2c[nH]c3ccccc23)cc1 [Compound P23, reference compound]	> 100	6.9 µM	104 ± 25%	
O=C(C=C(O)c1nnn[nH]1)c1c[nH]c2ccc(F)cc12 [Compound P31, reference compound]			61 ± 17%	IC50 ([1]; 3′-processing step of integration reaction, listed as 14, read-out: IC50 3′-Processing): 82 µM; IC50 ([1]; strand transfer step of integration reaction, listed as 14, read-out: IC50 Strand transfer): 6.56 ± 0.81 µM
